Tested on: L. major lysate proteins
Assay: Multitargeted bead mixture chemoproteomics, single concentration competition, proteome-wide
Format: binding

Structure (SMILES): Nc1nc2[nH]cc(CCc3ccc(C(=O)N[C@@H](CCC(=O)O)C(=O)O)cc3)c2c(=O)[nH]1 [PTX, pemetrexed]
- fold change relative to vehicle control (protein LMJF.35.1380, MIT[…], BETA SUBUNIT, PUTATIVE): 0.94
- fold change vs vehicle control (protein LMJF.35.1830 HY[…], CONSERVED): 0.93
- fold change vs vehicle control (protein LMJF.35.3340 6-phosphogluconate dehydrogenase): 1.01
- fold change (protein LMJF.35.3700 GIM5A PROTEIN, PUTATIVE,[…] PROTEIN, vehicle control = 1): 0.93
- fold change vs vehicle control (protein LMJF.35.3760 60S RIBOSOMAL PROTEIN L27A/L29, PUTATIVE): 1.08
- fold change relative to vehicle control (protein LMJF.35.3840, […] 2 SUBUNIT, PUTATIVE): 0.83
- fold change vs vehicle control (protein LMJF.35.3860 T-COMPLEX PROTEIN 1, ETA SUBUNIT, PUTATIVE): 0.97
- fold change (protein LMJF.35.4420 MIT[…] TRANSPORTER, PUTATIVE, vehicle control = 1): 1.01
- fold change relative to vehicle control (protein LMJF.35.4880, HY[…], CONSERVED (TPR repeat, putative)): 1.4
- fold change relative to vehicle control (protein LMJF.35.5330, ISOPENTENYL-D[…]-ISOMERASE, PUTATIVE): 1.04
- fold change relative to vehicle control (protein LMJF.36.0070, STRESS-INDUCIBLE PROTEIN STI1 HOMOLOG): 1.49
- fold change (protein LMJF.36.0480 HY[…], CONSERVED, vehicle control = 1): 0.95
- fold change vs vehicle control (protein LMJF.36.0620 HY[…], CONSERVED): 0.88
- fold change vs vehicle control (protein LMJF.36.0930 40S RIBOSOMAL PROTEIN S18, PUTATIVE): 1.13
- fold change vs vehicle control (protein LMJF.36.0990 40S RIBOSOMAL PROTEIN S10, PUTATIVE): 1.06
- fold change (protein LMJF.36.1140 SHORT CHAIN 3-HYDROXYACYL-COA DEHYDROGENASE, PUTATIVE, vehicle control = 1): 0.9
- fold change relative to vehicle control (protein LMJF.36.1260, FRUCTOSE-1,6-BI[…]): 1.12
- fold change (protein LMJF.36.1340 N-ACETYLT[…] NAT1, PUTATIVE, vehicle control = 1): 0.98
- fold change vs vehicle control (protein LMJF.36.1370 TRANSITIONAL ENDOPLASMIC RETICULUM ATPASE, PUTATIVE,VALOSIN-CONTAINING PROTEIN HOMOLOG): 0.94
- fold change vs vehicle control (protein LMJF.36.1650 […] 5 SUBUNIT, PUTATIVE): 1.01
- fold change relative to vehicle control (protein LMJF.36.2380, STEROL 24-C-METHYLTRANSFERASE, PUTATIVE): 0.95
- fold change vs vehicle control (protein LMJF.36.2950 SUCCINYL-COA LIGASE GDP-FORMING] BETA-CHAIN, PUTATIVE): 0.96
- fold change vs vehicle control (protein LMJF.36.3210 14-3-3 PROTEIN-LIKE PROTEIN): 0.92
- fold change vs vehicle control (protein LMJF.36.3410 SHORT CHAIN DEHYDROGENASE-LIKE PROTEIN): 1.04
- fold change (protein LMJF.36.3460 HY[…], CONSERVED (NIPSNAP, putative), vehicle control = 1): 0.94
- fold change (protein LMJF.36.3580 HY[…], CONSERVED (Protein of unknown function (DUF2009), putative), vehicle control = 1): 1.01
- fold change (protein LMJF.36.3750 40S RIBOSOMAL PROTEIN S27-1, PUTATIVE, vehicle control = 1): 0.86
- fold change vs vehicle control (protein LMJF.36.3910 S-ADENOSYLHO[…]): 0.95
- fold change vs vehicle control (protein LMJF.36.5010 40S RIBOSOMAL PROTEIN SA, PUTATIVE): 1.03
- fold change vs vehicle control (protein LMJF.36.5130 HY[…], CONSERVED): 0.91
- fold change vs vehicle control (protein LMJF.36.5150 HY[…], CONSERVED): 0.87
- fold change relative to vehicle control (protein LMJF.36.5380, NADH DEHYDROGENASE, PUTATIVE): 0.93
- fold change vs vehicle control (protein LMJF.36.5390 PHOSPHORIBOSYLPYR[…], PUTATIVE): 0.98
- fold change vs vehicle control (protein LMJF.36.5620 ISOLEUCYL-TRNA SYNTHETASE, PUTATIVE): 0.96
- fold change (protein LMJF.36.6430 PROTEIN TRANSPORT PROTEIN SEC23-LIKE PROTEIN, vehicle control = 1): 0.86
- fold change vs vehicle control (protein LMJF.36.6760 HY[…], CONSERVED): 0.92
- fold change relative to vehicle control (protein LMJF.[…], MIT[…] BETA SUBUNIT, PUTATIVE): 0.97
- fold change relative to vehicle control (protein LMJF.[…], POLY(A) EXPORT PROTEIN, PUTATIVE): 1.13
- fold change (vs vehicle control, protein LINJ.20.0630 CYTIDINE TR[…], PUTATIVE,CTP SYNTHASE, PUTATIVE): 0.98
- fold change (vs vehicle control, protein LINJ.20.1390 COATOMER BETA SUBUNIT, PUTATIVE): 0.66
- fold change (vs vehicle control, protein LMJF.05.1140 VACUOLAR ATPASE SUBUNIT-LIKE PROTEIN): 0.84
- fold change (vs vehicle control, protein LMJF.07.1090 DELTA-5 FATTY ACID DESATURASE): 0.92
- fold change (vs vehicle control, protein LMJF.09.0220 HY[…], CONSERVED): 0.65
- fold change (vs vehicle control, protein LMJF.11.1030 HY[…], CONSERVED): 0.9
- fold change (vs vehicle control, protein LMJF.14.0640 FATTY ACID ELONGASE, PUTATIVE): 0.83
- fold change (vs vehicle control, protein LMJF.14.0705 FATTY ACID ELONGASE, PUTATIVE): 0.85
- fold change (vs vehicle control, protein LMJF.14.1120 KINESIN K39, PUTATIVE): 0.88
- fold change (vs vehicle control, protein LMJF.16.1610 PROHIBITIN): 1.07
- fold change (vs vehicle control, protein LMJF.17.0010 HY[…], CONSERVED): 0.88
- fold change (vs vehicle control, protein LMJF.18.1130 RAS-RELATED PROTEIN RAB-5, PUTATIVE): 0.65
- fold change (vs vehicle control, protein LMJF.19.1420 CYSTEINE PEPTIDASE A (CPA)): 0.88
- fold change (vs vehicle control, protein LMJF.21.0280 HY[…], CONSERVED): 0.88
- fold change (vs vehicle control, protein LMJF.22.1560 40S RIBOSOMAL PROTEIN L14, PUTATIVE): 0.87
- fold change (vs vehicle control, protein LMJF.23.1220 T-COMPLEX PROTEIN 1, GAMMA SUBUNIT, PUTATIVE): 0.94
- fold change (vs vehicle control, protein LMJF.24.0370 ASPARTATE AMINOTRANSFERASE, PUTATIVE): 1.06
- fold change (vs vehicle control, protein LMJF.25.1770 ENOYL-COA REDUCTASE, PUTATIVE): 1.06
- fold change (vs vehicle control, protein LMJF.26.0170 60S RIBOSOMAL PROTEIN L7, PUTATIVE): 0.79
- fold change (vs vehicle control, protein LMJF.26.1550 TRIFUNCTIONAL ENZYME ALPHA SUBUNIT, MIT[…]-LIKE PROTEIN): 1.12
- fold change (vs vehicle control, protein LMJF.26.1610 PROLINE OXIDASE, MIT[…]-LIKE PROTEIN): 0.89
- fold change (vs vehicle control, protein LMJF.28.1950 X-PRO, DIPEPTIDYL-PEPTIDASE,SERINE PEPTIDASE, CLAN SC, FAMILY S15, PUTATIVE): 0.74
- fold change (vs vehicle control, protein LMJF.31.1070 BIOTIN/LIPOATE PROTEIN LIGASE-LIKE PROTEIN): 0.65
- fold change (vs vehicle control, protein LMJF.32.1370 HY[…], CONSERVED): 0.79
- fold change (vs vehicle control, protein LMJF.34.0490 IMPORTIN BETA-1 SUBUNIT, PUTATIVE): 0.77
- fold change (vs vehicle control, protein LMJF.34.4060 UBIQUITIN HYDROLASE, PUTATIVE,CYSTEINE PEPTIDASE, CLAN CA, FAMILY C19, PUTATIVE): 0.78
- fold change (vs vehicle control, protein LMJF.36.1600 […] 1 SUBUNIT, PUTATIVE): 0.85
- fold change (vs vehicle control, protein LMJF.[…] RIBOSOMAL PROTEIN S7, PUTATIVE): 1.19

— article PMC6199744, “Development of Chemical Proteomics for the Folateome and Analysis of the Kinetoplastid Folateome” (ACS Infectious Diseases, 2018)
